Test results reported in ChEMBL document CHEMBL3120093 (J Med Chem, 2014).

Legend:
[1] = Permeability of the compound at PH 7.4 by PAMPA; assay type: ADME; conditions: for Papp: read-out: permeability
[2] = Plasma concentration in rat at 5 mg/kg, po after 4 hrs; assay type: ADME, organism-based; design: dose 5 mg/kg, route oral
[3] = Drug uptake in rat liver at 5 mg/kg, po after 4 hrs; assay type: ADME, organism-based; design: dose 5 mg/kg, route oral; conditions: read-out: Drug uptake
[4] = AUC in rat at 5 mg/kg, po after 4 hrs; assay type: ADME, organism-based; design: time < 4 hr, dose 5 mg/kg, route oral; conditions: plasma
[5] = Drug uptake in rat liver at 5 mg/kg, po after 24 hrs; assay type: ADME, organism-based; design: dose 5 mg/kg, route oral; conditions: read-out: Drug uptake
[6] = Oral bioavailability in rat at 5 mg/kg after 24 hrs; assay type: ADME, organism-based; conditions: in vivo
[7] = Clearance in rat at 2 mg/kg, iv after 4 hrs; assay type: ADME, organism-based; design: dose 2 mg/kg, route intravenous; conditions: in vivo
[8] = Half life in rat at 2 mg/kg, iv after 24 hrs; assay type: ADME, organism-based; design: dose 2 mg/kg, route intravenous; conditions: in vivo
[9] = AUC in rat at 5 mg/kg, po after 24 hrs; assay type: ADME, organism-based; design: time < 24 hr, dose 5 mg/kg, route oral; conditions: plasma
[10] = Volume of distribution in rat at 2 mg/kg, iv after 24 hrs; assay type: ADME, organism-based; design: dose 2 mg/kg, route intravenous; conditions: in vivo
[11] = Clearance in rat at 2 mg/kg, iv after 24 hrs; assay type: ADME, organism-based; design: dose 2 mg/kg, route intravenous; conditions: in vivo

CC[C@H](NC(=O)OC)C(=O)N1CCC[C@H]1c1ncc(-c2ccc(-c3ccc(-c4cnc([C@@H]5CCCN5C(=O)[C@H](CC)NC(=O)OC)[nH]4)cc3)cc2)[nH]1
Papp [1]: 38.4 ×10⁻⁶ cm/s

COC(=O)N[C@H](C(=O)N1CCC[C@H]1c1ncc(-c2ccc(-c3ccc(-c4cnc([C@@H]5CCCN5C(=O)[C@@H](NC(=O)OC)[C@@H](C)OC)[nH]4)cc3)cc2)[nH]1)[C@@H](C)OC
concentration at 4 h [2]: 121 nM
concentration at 4 h [3]: 453 nM
AUC at 4 h [4]: 0.472 µM·h
Papp [1]: 27.5 ×10⁻⁶ cm/s

COC(=O)N[C@H](C(=O)N1CCC[C@H]1c1ncc(-c2ccc(-c3ccc(-c4cnc([C@@H]5CCCN5C(=O)[C@@H](NC(=O)OC)C5CC5)[nH]4)cc3)cc2)[nH]1)C1CC1
Papp [1]: 50 ×10⁻⁶ cm/s

CC[C@H](NC(=O)OC)C(=O)N1CCC[C@H]1c1ncc(-c2ccc(-c3ccc(-c4cnc([C@@H]5CCCN5C(=O)[C@@H](c5ccccc5)N(CC)CC)[nH]4)cc3)cc2)[nH]1
concentration at 24 h [5]: 132 nM
concentration at 4 h [3]: 471 nM
bioavailability [6]: 4.3%
Papp [1]: 36.3 ×10⁻⁶ cm/s

CCN(CC)[C@@H](C(=O)N1CCC[C@H]1c1ncc(-c2ccc(-c3ccc(-c4cnc([C@@H]5CCCN5C(=O)[C@@H](NC(=O)OC)C(C)C)[nH]4)cc3)cc2)[nH]1)c1ccccc1
concentration at 4 h [2]: 13 nM
concentration at 4 h [3]: 1230 nM
AUC at 4 h [4]: 0.034 µM·h
Papp [1]: 70.6 ×10⁻⁶ cm/s

O=C([C@@H](c1ccccc1)N1CCCC1)N1CCC[C@H]1c1ncc(-c2ccc(-c3ccc(-c4cnc([C@@H]5CCCN5C(=O)[C@@H](c5ccccc5)N5CCCC5)[nH]4)cc3)cc2)[nH]1
concentration at 4 h [2]: 0.7 nM
concentration at 4 h [3]: 80 nM
AUC at 4 h [4]: 0.005 µM·h
Papp [1]: 3.6 ×10⁻⁶ cm/s

O=C([C@@H](c1ccccc1)N1CCOCC1)N1CCC[C@H]1c1ncc(-c2ccc(-c3ccc(-c4cnc([C@@H]5CCCN5C(=O)[C@@H](c5ccccc5)N5CCOCC5)[nH]4)cc3)cc2)[nH]1
concentration at 4 h [2]: 11 nM
concentration at 4 h [3]: 239 nM
AUC at 4 h [4]: 0.054 µM·h
Papp [1]: 34.9 ×10⁻⁶ cm/s

CCN(CC)[C@@H](C(=O)N1CCC[C@H]1c1ncc(-c2ccc(-c3ccc(-c4cnc([C@@H]5CCCN5C(=O)[C@@H](c5ccccc5)N5CCCCC5)[nH]4)cc3)cc2)[nH]1)c1ccccc1
Papp [1]: 33.7 ×10⁻⁶ cm/s

COC(=O)N[C@@H](C(=O)N1CCC[C@H]1c1ncc(-c2ccc(-c3ccc(-c4cnc([C@@H]5CCCN5C(=O)CNC(C)=O)[nH]4)cc3)cc2)[nH]1)c1ccccc1
Papp [1]: 1.2 ×10⁻⁶ cm/s

COC(=O)N[C@@H](C(=O)N1CCC[C@H]1c1ncc(-c2ccc(-c3ccc(-c4cnc([C@@H]5CCCN5C(=O)[C@@H](C)NC(C)=O)[nH]4)cc3)cc2)[nH]1)c1ccccc1
Papp [1]: 2.8 ×10⁻⁶ cm/s

COC(=O)N[C@@H](C(=O)N1CCC[C@H]1c1ncc(-c2ccc(-c3ccc(-c4cnc([C@@H]5CCCN5C(=O)[C@H](C)NC(C)=O)[nH]4)cc3)cc2)[nH]1)c1ccccc1
Papp [1]: 10 ×10⁻⁶ cm/s

COC(=O)N[C@@H](C)C(=O)N1CCC[C@H]1c1ncc(-c2ccc(-c3ccc(-c4cnc([C@@H]5CCCN5C(=O)[C@H](NC(=O)OC)c5ccccc5)[nH]4)cc3)cc2)[nH]1
Papp [1]: 36.3 ×10⁻⁶ cm/s

COC(=O)N[C@@H](C)C(=O)N1CCC[C@H]1c1ncc(-c2ccc(-c3ccc(-c4cnc([C@@H]5CCCN5C(=O)[C@H](C)NC(=O)OC)[nH]4)cc3)cc2)[nH]1
concentration at 4 h [2]: 57 nM
concentration at 4 h [3]: 134 nM
AUC at 4 h [4]: 0.281 µM·h
Papp [1]: 20.7 ×10⁻⁶ cm/s

COC(=O)N[C@H](C)C(=O)N1CCC[C@H]1c1ncc(-c2ccc(-c3ccc(-c4cnc([C@@H]5CCCN5C(=O)[C@@H](C)NC(=O)OC)[nH]4)cc3)cc2)[nH]1
Papp [1]: 4.7 ×10⁻⁶ cm/s

CCOC(=O)N[C@@H](C)C(=O)N1CCC[C@H]1c1ncc(-c2ccc(-c3ccc(-c4cnc([C@@H]5CCCN5C(=O)[C@H](C)NC(=O)OCC)[nH]4)cc3)cc2)[nH]1
Papp [1]: 45.1 ×10⁻⁶ cm/s

COC(=O)NC(C)(C)C(=O)N1CCC[C@H]1c1ncc(-c2ccc(-c3ccc(-c4cnc([C@@H]5CCCN5C(=O)C(C)(C)NC(=O)OC)[nH]4)cc3)cc2)[nH]1
Papp [1]: 2.6 ×10⁻⁶ cm/s

COC(=O)NC1(C(=O)N2CCC[C@H]2c2ncc(-c3ccc(-c4ccc(-c5cnc([C@@H]6CCCN6C(=O)C6(NC(=O)OC)CC6)[nH]5)cc4)cc3)[nH]2)CC1
Papp [1]: 0.2 ×10⁻⁶ cm/s

COC(=O)NCC(=O)N1CCC[C@H]1c1ncc(-c2ccc(-c3ccc(-c4cnc([C@@H]5CCCN5C(=O)[C@H](NC(=O)OC)c5ccccc5)[nH]4)cc3)cc2)[nH]1
concentration at 4 h [3]: 26.2 nM
Papp [1]: 16.4 ×10⁻⁶ cm/s

COC(=O)N[C@@H](C(=O)N1CCC[C@H]1c1ncc(-c2ccc(-c3ccc(-c4cnc([C@@H]5CCCN5C(C)=O)[nH]4)cc3)cc2)[nH]1)c1ccccc1
Papp [1]: 50 ×10⁻⁶ cm/s

COC(=O)N[C@@H](C(=O)N1CCC[C@H]1c1ncc(-c2ccc(-c3ccc(-c4cnc([C@@H]5CCCN5C(=O)[C@@H]5CCCO5)[nH]4)cc3)cc2)[nH]1)c1ccccc1
concentration at 4 h [2]: 27 nM
concentration at 4 h [3]: 802 nM
AUC at 4 h [4]: 0.127 µM·h
Papp [1]: 48 ×10⁻⁶ cm/s

CN(C)[C@@H](C(=O)N1CCC[C@H]1c1ncc(-c2ccc(-c3ccc(-c4cnc([C@@H]5CCCN5C(=O)[C@@H]5CCCO5)[nH]4)cc3)cc2)[nH]1)c1ccccc1
concentration at 4 h [2]: 27 nM
concentration at 4 h [3]: 563 nM
AUC at 4 h [4]: 0.062 µM·h
Papp [1]: 20 ×10⁻⁶ cm/s

CCN(C)[C@@H](C(=O)N1CCC[C@H]1c1ncc(-c2ccc(-c3ccc(-c4cnc([C@@H]5CCCN5C(=O)[C@@H](c5ccccc5)N(C)CC)[nH]4)cc3)cc2)[nH]1)c1ccccc1
clearance [7]: 88 mL/min/kg
concentration at 4 h [2]: 2 nM
concentration at 4 h [3]: 1980 nM
AUC at 4 h [4]: 0.006 µM·h
Papp [1]: 10.6 ×10⁻⁶ cm/s

CCN(CC)[C@@H](C(=O)N1CCC[C@H]1c1ncc(-c2ccc(-c3ccc(-c4cnc([C@@H]5CCCN5C(=O)[C@@H](c5ccccc5)N(CC)CC)[nH]4)cc3)cc2)[nH]1)c1ccccc1
clearance [7]: 4 mL/min/kg
concentration at 4 h [2]: 6 nM
concentration at 4 h [3]: 1090 nM
AUC at 4 h [4]: 0.013 µM·h
Papp [1]: 25.5 ×10⁻⁶ cm/s

COC(=O)N[C@@H](C(=O)N1CCC[C@H]1c1ncc(-c2ccc(-c3ccc(-c4cnc([C@@H]5CCCN5C(=O)[C@H](NC(=O)OC)c5ccccc5)[nH]4)cn3)cc2)[nH]1)c1ccccc1
Papp [1]: 17.7 ×10⁻⁶ cm/s

COC(=O)N[C@@H](C(=O)N1CCC[C@H]1c1ncc(-c2ccc(-c3ccc(-c4cnc([C@@H]5CCCN5C(=O)[C@H](NC(=O)OC)c5ccccc5)[nH]4)nc3)cc2)[nH]1)c1ccccc1
Papp [1]: 17.9 ×10⁻⁶ cm/s

COC(=O)N[C@@H](C(=O)N1CCC[C@H]1c1ncc(-c2ccc(-c3ncc(-c4cnc([C@@H]5CCCN5C(=O)[C@H](NC(=O)OC)c5ccccc5)[nH]4)cn3)cc2)[nH]1)c1ccccc1
bioavailability [6]: 0.5%
half-life [8]: 1.7 h
AUC at 24 h [9]: 0.021 µM·h
Vd [10]: 1.7 L/kg
clearance [11]: 36 mL/min/kg
Papp [1]: 18.6 ×10⁻⁶ cm/s

O=C(C(c1ccccc1)N1CC[C@H](F)C1)N1CCC[C@H]1c1ncc(-c2ccc(-c3ccc(-c4cnc([C@@H]5CCCN5C(=O)C(c5ccccc5)N5CC[C@H](F)C5)[nH]4)cc3)cc2)[nH]1 (stereo in doubt; 21)
permeability [1]: impermeable
